Results reported in PMC4536990, “Efficacy of the antimicrobial peptide TP4 against Helicobacter pylori infection: in vitro membrane perturbation via micellization and in vivo suppression of host immune responses in a mouse model” (Oncotarget, 2015).
Where a SMILES comes first, the peptide text is derived from it.

Key:
H. pylori [1] = assay type: cell-based, Helicobacter pylori; settings: 24 h
Procedure: Frozen cultures were streaked onto BHI agar with 10% sheep blood, and incubated for 24 hr under microaerophilic conditions. H. pylori cells undergoing exponential growth were suspended in sterile phosphate-buffered saline (PBS), and adjusted to 0.05 OD using BHI broth; the resulting inoculum was dispensed onto a microtitre plate. Peptide TP4 was prepared at various concentrations (0.04 to 50 μg mL^−1) using PBS. Antibiotic resistant clinical isolate CI-HC-028 and three reference strains were used for susceptibility testing. All plates were incubated under microaerophilic conditions at 37°C overnight. The MIC was defined as the lowest concentration of the drug at which there was no visible growth. For quality control and comparative analyses, we examined the susceptibility of all four H. pylori strains to the antibiotics amoxicillin, clarithromycin, and metronidazole (Sigma Chemical Co., St. Louis, MO).

C3H/HeN mice [2] = assay: Acute oral toxicity; assay type: in vivo; settings: single oral dose 125 mg/kg, n=6, observed 24 hours
Procedure: Oral toxicity: Acute oral toxicity was assessed in C3H/HeN mice with 6 animals per group, by single oral administration of TP4 (125 mg/kg). […] The mortality rate and clinical signs were recorded. Sub-acute oral toxicity was assessed by administering 600 μg dose/day for 14 days. During dose administration, the animals were observed every day for any signs of toxicity. After the treatment period, the animals were kept under observation for 14 days. The morbidity, mortality, and other clinical signs were recorded and assessed. Dermal Toxicity was assessed by topical application of TP4 at 10 times the effective dose to skin at the dorsal side of mice. After administration, the animals were kept under observation for a minimum of 48 h. Clinical signs were noted if the animals were in the morbid stage or presented with any abnormalities. Eye irritation test in New Zealand white rabbits: Healthy young adult rabbits were used in the experiment. Eyes were treated with TP4, PBS (vehicle control), or 0.1% SDS (positive control). A repeated dose of 1 mg/kg was administered every day for 7 days. During the treatment period, the eyes were examined on days 1, 3, 5, and 7, and allowed to recover until day 14. Clinical signs were recorded during the test period, and grades were assigned for ocular reactions observed during each examination. […]

C3H/HeN mice [3] = assay: Sub-acute oral toxicity; assay type: in vivo; settings: three-fold therapeutic dose (600 μg dose/day) orally for 14 days, observed days 1 to 28, n=6
Procedure: Sub-acute oral toxicity: Three-fold therapeutic doses were orally administered to mice for 14 days.
Oral toxicity: Acute oral toxicity was assessed in C3H/HeN mice with 6 animals per group, by single oral administration of TP4 (125 mg/kg). After dose administration, the animals were kept under observation for a minimum of 48 hr. The mortality rate and clinical signs were recorded. Sub-acute oral toxicity was assessed by administering 600 μg dose/day for 14 days. During dose administration, the animals were observed every day for any signs of toxicity. After the treatment period, the animals were kept under observation for 14 days. The morbidity, mortality, and other clinical signs were recorded and assessed. Dermal Toxicity was assessed by topical application of TP4 at 10 times the effective dose to skin at the dorsal side of mice. After administration, the animals were kept under observation for a minimum of 48 h. Clinical signs were noted if the animals were in the morbid stage or presented with any abnormalities. Eye irritation test in New Zealand white rabbits: Healthy young adult rabbits were used in the experiment. Eyes were treated with TP4, PBS (vehicle control), or 0.1% SDS (positive control). […] Clinical signs were recorded during the test period, and grades were assigned for ocular reactions observed during each examination. […]

C3H/HeN mice [4] = assay: Dermal toxicity; assay type: in vivo
Procedure: (§1) Figure 11 TP4 toxicity safety evaluations in New Zealand albino rabbits and C3H/HeN mice (A) Eye irritation test: Ocular appearances of controls, and rabbits treated with TP4 or SDS for 7 days. […] (B) Dermal toxicity: appearances of the skin of mice treated with TP4 at 48 hr post-exposure.
(§2) Oral toxicity: Acute oral toxicity was assessed in C3H/HeN mice with 6 animals per group, by single oral administration of TP4 (125 mg/kg). After dose administration, the animals were kept under observation for a minimum of 48 hr. The mortality rate and clinical signs were recorded. Sub-acute oral toxicity was assessed by administering 600 μg dose/day for 14 days. During dose administration, the animals were observed every day for any signs of toxicity. After the treatment period, the animals were kept under observation for 14 days. The morbidity, mortality, and other clinical signs were recorded and assessed. Dermal Toxicity was assessed by topical application of TP4 at 10 times the effective dose to skin at the dorsal side of mice. After administration, the animals were kept under observation for a minimum of 48 h. Clinical signs were noted if the animals were in the morbid stage or presented with any abnormalities. Eye irritation test in New Zealand white rabbits: Healthy young adult rabbits were used in the experiment. Eyes were treated with TP4, PBS (vehicle control), or 0.1% SDS (positive control). A repeated dose of 1 mg/kg was administered every day for 7 days. During the treatment period, the eyes were examined on days 1, 3, 5, and 7, and allowed to recover until day 14. Clinical signs were recorded during the test period, and grades were assigned for ocular reactions observed during each examination. All procedures, care, and handling of rabbits were approved by the laboratory animal ethics committee of National Taiwan Ocean University.

[5] = system: New Zealand white rabbits; assay: Eye irritation test in rabbits (OECD 405); assay type: in vivo; settings: for Abnormality iris grade / Chemosis grade / Conjunctivae Redness grade / Corneal opacity grade: OECD 405 grading
Procedure: as §1, §2

[6] = cited from earlier work
Text: (§3) A more complete understanding of how these short amphipathic cationic AMPs bring about bacterial cell death and host immunomodulation is needed for further optimization and development for clinical applications.

[7] = system: human and mouse cell lines; settings: cited from earlier work
Text: as §3

H. pylori CI-HC-028 = assay: Time-dependent killing of multidrug resistant clinical isolate; assay type: cell-based, Helicobacter pylori; settings: CI-HC-028, at MIC
Procedure: Control peptide and H. pylori alone were used as controls. The cultures were monitored for 24 h, and aliquots were taken at 1, 3, 6, 12, and 24 h for bacterial enumeration. The data are means ± SEM. […] Approximately, 1 × 10^5 cells were incubated for 1 h, and then incubated with the MIC of TP4, amoxicillin, metronidazole, or clarithromycin (AMOX, METZ, and CLRN, respectively). The cultures were monitored for 24 h, and aliquots taken at 1, 3, 6, 12, and 24 h to determine surviving c.f.u. The data are means ± SEM
Overnight cultures of H. pylori were scraped and adjusted to OD 0.05, and 1 ml/tube inocula were prepared with BHI broth. Solutions of TP4 or clinical antibiotics were prepared with concentrations corresponding to their respective MIC, and PBS was used as a control. The tubes were incubated without shaking at 37°C under microaerophilic conditions, and sample aliquots were taken at 0, 1, 3, 6, 12, and 24 hr. The samples were serially diluted, and appropriate dilutions were plated in triplicate onto blood agar plates for bacterial counts. The results were expressed as mean log (c.f.u. mL^−1) with standard error.

H. pylori [8] = assay: Induction of drug resistance by sub-inhibitory passaging (in vitro / in vivo passage); assay type: cell-based, Helicobacter pylori; settings: sub-inhibitory doses, 10 serial passages
Procedure: (§4) Animals were sacrificed at each passage, and the MIC of TP4, amoxicillin, metronidazole, and clarithromycin were recorded for 10 serial passages. Passage points in the curves are means ± SEM. (MICs: standard MIC value; MICp: passage-induced MIC). (B) In vitro dose-OD fall kinetics were examined for TP4 alone and in combination with amoxicillin, metronidazole, or clarithromycin. […] The data shown are means ± SEM of two independent experiments
The drug resistance of bacteria to TP4 and clinical antibiotics was determined by in vitro culturing of H. pylori in sub-inhibitory concentrations of TP4 and antibiotics, followed by repeated in vivo passaging. H. pylori was administered to C3H/HeN mice and allowed to colonize the gut; subsequently pure colonies of H. pylori were isolated on EYE selective media. This step was repeated for 10 passages. During each passage, the MICs of TP4 and the conventional antibiotics were determined. All procedures, care, and handling of mice were approved by the laboratory animal ethics committee of National Taiwan Ocean University.

[9] = system: metronidazole- and clarithromycin-resistant H. pylori strains; assay: Synergy of TP4 with antibiotics, in vitro dose-OD fall kinetics; assay type: cell-based, Helicobacter pylori; settings: TP4 plus antibiotic
Procedure: as §4
Combination therapy often enhances antibiotic efficacy and mitigates the frequency at which drug resistance emerges. To determine the suitability of TP4 for combination therapy, we examined in vitro dose-OD fall kinetics of TP4 in combination with AMOX, CLRN, or METZ antibiotics; these three antibiotics are traditionally used as the first line of defense against H. pylori.

H. pylori outer membrane = assay: NPN uptake membrane perturbation assay; assay type: cell-based, Helicobacter pylori; settings: 6 h incubation, 22μg mL−1 NPN
Procedure: Figure 3 TP4 induces membrane permeation of H. pylori TP4 rapidly permeabilizes the H. pylori outer membrane in a dose-dependent manner. Membrane permeabilization was examined by measuring fluorescence due to uptake of 1-N-phenyl-naphthylamine (NPN). Approximately 5 × 10^6 H. pylori (Hp) cells were cultured in the presence of TP4 or amoxicillin for 6 h. Bacterial cells alone, or cells incubated with NPN and control peptide, were used as negative controls. NPN fluorescence intensity was recorded as a correlate of membrane permeation. (B) Zeta-potential (ζ) of H. pylori in the presence/absence of TP4. Striped bars: H. pylori grown in blood agar plates; white bar: liquid culture. The data shown are means ± SEM of two independent experiments
The NPN membrane permeation assay was performed as described previously. Briefly, a starter culture of H. pylori was grown overnight to 0.05 OD. The adjusted culture was aliquoted into different tubes with or without TP4/amoxicillin, and incubated at 37°C for 360 minutes under microaerophilic conditions. […] NPN fluorescence intensity was recorded using a Synergy HT (BioTek, U.S.A) fluorescence ELISA reader, and correlated to membrane potential and permeation. Experiments were performed in triplicate, and the results are expressed as means with standard error.

H. pylori [10] = assay: Transmission electron microscopy of H. pylori morphology; assay type: cell-based, Helicobacter pylori; settings: 1x MIC, 2 hr
Text: Figure 4 Electron micrographs reveal that TP4 causes membrane disruption in H. pylori via micellization Approximately 6 × 10^7 H. pylori cells were exposed to PBS (A, D), 1x MIC amoxicillin (B, E), or 1x MIC TP4 peptide (C, F) for 2 hr. Next, thin sections were examined under a transmission electron microscope (TEM) at low (1,100X; A-C) or high (5,500X; D-F) magnification. […] (E) Amoxicillin-treated cells retained intact membranes, but the periplasmic space was swollen in some locations.
Transmission electron microscopy (TEM) was used to examine the mechanism of TP4 action on H. pylori, overall cell morphology, TP4 translocation into H. pylori, and binding of TP4 to internal constituents. H. pylori overnight cultures from BHI-blood agar plates were collected, and 0.1 OD inocula were incubated with TP4, Amoxicillin, and/or PBS (PBS only: negative control). Following drug exposure, H. pylori cells were collected and successively washed twice in PBS by centrifugation and resuspension. The cells were then fixed and processed for TEM using previously described methods. […] Each grid was examined under the same settings. Images were recorded with a 4MP SPOT Insight charge-coupled-device (CCD) camera.

CC[C@H](C)[C@H](NC(=O)[C@H](C)NC(=O)[C@H](CCCCN)NC(=O)CNC(=O)[C@H](C)NC(=O)[C@H](CO)NC(=O)[C@H](Cc1ccccc1)NC(=O)[C@H](CC(C)C)NC(=O)CNC(=O)CNC(=O)[C@@H](NC(=O)[C@@H](NC(=O)[C@H](Cc1c[nH]cn1)NC(=O)[C@H](Cc1c[nH]cn1)NC(=O)[C@@H](NC(=O)[C@@H](N)Cc1ccccc1)[C@@H](C)CC)[C@@H](C)CC)[C@@H](C)CC)C(=O)N[C@@H](Cc1c[nH]cn1)C(=O)N[C@@H](CCCNC(=N)N)C(=O)N[C@@H](CC(C)C)C(=O)N[C@H](C(=O)N[C@@H](CCCNC(=N)N)C(=O)N[C@@H](CCCNC(=N)N)C(=O)N[C@@H](CCCNC(=N)N)C(=O)N[C@@H](CCCNC(=N)N)C(=O)N[C@@H](CCCNC(=N)N)C(N)=O)[C@@H](C)CC [TP4] (H-FIHHIIGGLFSAGKAIHRLIRRRRR-NH2)
MIC (H. pylori [1]): 1.5 to 3 µg/mL | acute oral toxicity, clinical signs and vital organs (C3H/HeN mice [2]): did not exhibit any abnormal clinical signs | sub-acute oral toxicity, clinical signs (C3H/HeN mice [3]): did not induce clinical complications in mice | skin appearance, lesions (C3H/HeN mice [4]; 48 hr post-exposure, after residue removal, 125 mg/kg TP4 or 20% SDS, n=12 per group): No obvious lesions | dermal toxicity, mortality or damaging effects (C3H/HeN mice [4]; topical, 10 times the effective dose, 14-day observation): did not result in mortality or damaging effects | Abnormality iris grade ([5]; Day 1): 0 | Chemosis grade ([5]; Day 1): 0 | Conjunctivae Redness grade ([5]; Day 1): 0 | Corneal opacity grade ([5]; Day 1, rabbit eye, daily for 7 days (TP4 1 mg/kg; SDS 0.1%)): 0 | Abnormality iris grade ([5]; Day 3): 0 | Chemosis grade ([5]; Day 3): 0.1 | Conjunctivae Redness grade ([5]; Day 3): 0 | Corneal opacity grade ([5]; Day 3): 0 | Abnormality iris grade ([5]; Day 5): 0 | Chemosis grade ([5]; Day 5): 0.1 | Conjunctivae Redness grade ([5]; Day 5): 0.5 | Corneal opacity grade ([5]; Day 5): 0.1 | Abnormality iris grade ([5]; Day 7): 0 | Chemosis grade ([5]; Day 7): 0.1 | Conjunctivae Redness grade ([5]; Day 7): 0 | Corneal opacity grade ([5]; Day 7): 0.3 | Abnormality iris grade ([5]; Recovery, Day 14): 0 | Chemosis grade ([5]; Recovery, Day 14): 0 | Conjunctivae Redness grade ([5]; Recovery, Day 14): 0 | Corneal opacity grade ([5]; Recovery, Day 14): 0 | ocular appearance ([5]; rabbits treated for 7 days, observed daily): no ocular lesions were detected | hemolytic activity [6]: low hemolytic activity | toxicity against cell lines [7]: low toxicity against human and mouse cell lines

CC1(C)S[C@@H]2[C@H](NC(=O)[C@H](N)c3ccc(O)cc3)C(=O)N2[C@H]1C(=O)O [amoxicillin]
killing within 24 hr (H. pylori CI-HC-028): 90% | drug resistance index MICp/MICs (H. pylori [8]): increased slightly after passage 6, and remained constant thereafter | reduction of the MIC of the antibiotic in combination with TP4 [9]: one-fourth | NPN fluorescence intensity (membrane permeabilization) (H. pylori outer membrane): slight increase in fluorescence intensity at higher doses | membrane morphology by TEM (H. pylori [10]): loose outer membranes
